Measurements published in publication PMC7992156 (ACS Omega, 2021).
pKd: −log10 of the molar value. Counter-ions that a name gives are not always drawn.

Target: T1, irisin (Homo sapiens, UniProt Q8NAU1)
T1 sequence (Q8NAU1 80-191): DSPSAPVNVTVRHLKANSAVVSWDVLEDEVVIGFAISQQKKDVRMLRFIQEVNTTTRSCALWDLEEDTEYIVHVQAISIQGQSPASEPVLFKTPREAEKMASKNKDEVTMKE
Assay: isothermal titration calorimetry
Format: binding

- pKd: 4.84
SMILES: CCN(C)C(=O)Oc1cccc([C@H](C)N(C)C)c1 [RT, rivastigmine tartrate]
